Format in all cases: biochemical
A short description of experiment [1]: Scavenging of superoxide radicals in vitro (xanthine-xanthine oxidase system, lucigenin chemiluminescence). The procedure: (§1) Estimation of free radical trapping capacity. The capacity of the extracts, fractions thereof and the pure compounds to trap superoxide (oxygen radical) and peroxyl radicals was estimated by chemiluminescence-based methodology (17). Superoxide anions were produced by xanthine-xanthine oxidase system as follows. 20 μL of xanthine oxidase (420 mU/mL), 0.02 mL of 5 mM lucigenin, 0.02 mL of 200 mM linoleic acid dissolved in 50 mM KOH, 0.78 mL of 50 mM potassium phosphate buffer, pH 10.0, and test samples were pipetted in cuvettes. The reaction was initiated by the automated dispensing of 0.11 mL of 1.45 mM xanthine (final volume 1.0 mL). Chemiluminescence in duplicate samples at 35° C. was measured for 6 min in 1-min cycles. Peroxyl radicals were generated by thermal decomposition of 2,2′-azobis(2-amidinopropane)-hydrochloride as follows. 0.45 mL of 0.1 M sodium phosphate buffer, pH 7.4, containing 0.9% NaCl, 0.02 mL of 120 mM linoleic acid, 0.05 mL of luminol (0.5 mg/mL) and test compounds were mixed in the cuvette. The assay was initiated by 0.05 mL of ABAP (83 mg/mL). Chemiluminescence in triplicate cuvettes at 37° C. was measured until a peak value for each sample was detected. The half-peak time point defined the peroxyl radical trapping capacity.

Experiment [2] concerns t-butylhydroperoxide (t-BuOOH) induced lipid peroxidation in rat liver microsomes. Description: Inhibition of t-BuOOH induced lipid peroxidation in rat liver microsomes in vitro (luminol-enhanced chemiluminescence). An excerpt: Estimation of inhibition of lipid peroxidation. The antioxidant properties of the extracts, fractions thereof and the pure compounds were estimated by their potency to inhibit t-butylhydroperoxide (t-BuOOH) induced lipid peroxidation in rat liver microsomes in vitro (17) and by their capacity to trap superoxide (oxygen radical) and peroxyl radicals, estimated by chemiluminescence-based methodology (17). The lipid peroxidation was detected by luminol-enhanced chemiluminescence. Test compounds or extracts were added to incubation mixtures in a small volume (2% of incubation volume), and the lipid peroxidation potency was compared to that of the vehicle (ethanol). Assays for the t-BuOOH-initiated lipid peroxidation was performed as follows. The buffer (50 mM sodium carbonate, pH 10.2, with 0.1 mM EDTA) was pipetted in a volume of 0.8 mL in the luminometer cuvette. 20 μL of diluted rat liver microsomes (final concentration 1.5 μg protein/mL) was added, followed by 6 μL of luminol (0.5 mg/mL) and test chemicals. The reaction was initiated by 0.05 mL of 0.9 mM t-BuOOH at 33° C. The chemiluminescence was measured for 45 min at 1 min cycles. The tests were repeated two to four times on separate days. Variation between assays were <10%.
(Microsomes from liver hold many membrane-bound enzymes, among them those of drug oxidation.)

The nature of experiment [3]: Scavenging of peroxyl radicals in vitro (thermal decomposition of ABAP, luminol chemiluminescence). To be noted: for Stoichiometric factor (peroxyl radicals), range over the two test series: Series 1 and 2 together. The procedure: as §1
Setting [4] is: knotwood extracts, fractions and reference compounds.
Where [5] appears, read: Series 1, pure compounds, rat liver microsomes.
The mark [6] stands for this setting: knotwood extracts, fractions and reference compounds, rat liver microsomes.
[7] abbreviates: Series 2, pure compounds, different batch of rat liver microsomes.

This is an account of results in US7976877B2, “Use of knotwood extracts” (Oy Arbonova Ab, priority 2003, dated 2011).

Each structure is given as a SMILES string.

What is called IC50 is the concentration needed to halve the response being measured.

Consider `COc1ccc(O)c(C(C)(C)C)c1` [BHA, butylated hydroxyanisole, reference compound], for which the IC50 in experiment [1] (Series 1, pure compounds) came to 15 nM; in experiment [2] (setting [5]), 1100 nM. In addition, in experiment [1] (setting [4]), the “Scavenging of superoxide radicals in vitro, IC50” value (“Scavenging of superoxide radicals” for short) turned out to be 0.0027 µg/mL. In addition, the “Inhibition of lipid peroxidation in vitro, IC50” value (“Inhibition of lipid peroxidation” below) in experiment [2] (setting [6]) came to 0.198 µg/mL.

`COc1cc(C[C@H]2C(=O)OC[C@@H]2[C@H](O)c2ccc(O)c(OC)c2)ccc1O` [Hydroxymatairesinol]: in experiment [1] (Series 1, pure compounds), half-maximal inhibition (IC50) required 217 nM and the “Scavenging of superoxide radicals” value worked out at 0.081 µg/mL. In addition, in experiment [2] (setting [5]), the IC50 was determined as 150 nM and the “Inhibition of lipid peroxidation” value turned out to be 0.058 µg/mL. Further, in experiment [2] (setting [7]), the IC50 turned out to be 180 nM and the “Inhibition of lipid peroxidation” value came out at 0.067 µg/mL. Besides, in experiment [3] (Series 1, pure compounds), the “Stoichiometric factor (peroxyl radicals scavenged per mole of compound)” value worked out at 2.1 mole/mole and the “Trapping capacity (peroxyl radicals scavenged per gram)” value came to 5.6 mmol/g. Also, in experiment [3] (Series 2, pure compounds), the “Stoichiometric factor (peroxyl radicals scavenged per mole of compound)” value was determined as 2.7 mole/mole and the “Trapping capacity (peroxyl radicals scavenged per gram)” value worked out at 7.3 mmol/g.

For `COc1cc(C[C@H]2CO[C@H](c3ccc(O)c(OC)c3)[C@H]2CO)ccc1O` [Lariciresinol], in experiment [1] (Series 1, pure compounds), the IC50 was determined as 35 nM and the “Scavenging of superoxide radicals” value was determined as 0.013 µg/mL. Moreover, in experiment [2] (setting [5]), the IC50 turned out to be 350 nM and the “Inhibition of lipid peroxidation” value was found to be 0.126 µg/mL. For the same molecule, in experiment [2] (setting [7]), the IC50 amounted to 170 nM and the “Inhibition of lipid peroxidation” value was determined as 0.063 µg/mL. Also, in experiment [3] (Series 1, pure compounds), the “Stoichiometric factor (peroxyl radicals scavenged per mole of compound)” value came out at 1.0 mole/mole and the “Trapping capacity (peroxyl radicals scavenged per gram)” value was found to be 2.7 mmol/g. Besides, in experiment [3] (Series 2, pure compounds), the “Stoichiometric factor (peroxyl radicals scavenged per mole of compound)” value was determined as 2.6 mole/mole and the “Trapping capacity (peroxyl radicals scavenged per gram)” value came out at 7.3 mmol/g.

With `COc1cc(C[C@H]2COC(=O)[C@@H]2Cc2ccc(O)c(OC)c2)ccc1O` [Matairesinol], in experiment [1] (Series 1, pure compounds), the IC50 turned out to be 40 nM and the “Scavenging of superoxide radicals” value stood at 0.014 µg/mL. For the same molecule, in experiment [2] (setting [5]), the IC50 was 280 nM and the “Inhibition of lipid peroxidation” value was found to be 0.099 µg/mL. In experiment [3] (Series 1, pure compounds), the “Stoichiometric factor (peroxyl radicals scavenged per mole of compound)” value was determined as 1.0 mole/mole and the “Trapping capacity (peroxyl radicals scavenged per gram)” value was 2.9 mmol/g.

With `COc1cc(CC2COC(=O)C2(O)Cc2ccc(O)c(OC)c2)ccc1O` (centres unmarked) [Nortrachelogenin], the IC50 in experiment [1] (Series 1, pure compounds) turned out to be 1.4 nM; in experiment [2] (setting [5]), 140 nM; in experiment [2] (setting [7]), 190 nM. Further, the “Scavenging of superoxide radicals” value in experiment [1] (Series 1, pure compounds) is 0.00053 µg/mL; in experiment [1] (Series 1, pure compounds, listed as nortrachelogenin), “more effective scavengers than both BHA and Trolox”. In addition, the “Inhibition of lipid peroxidation” value in experiment [2] (setting [5]) was found to be 0.053 µg/mL; in experiment [2] (setting [7]), 0.07 µg/mL. Besides, the “Stoichiometric factor (peroxyl radicals scavenged per mole of compound)” value in experiment [3] (Series 1, pure compounds) is 2.2 mole/mole; in experiment [3] (Series 2, pure compounds) it was 2.0 mole/mole. Besides, the “Trapping capacity (peroxyl radicals scavenged per gram)” value in experiment [3] (Series 1, pure compounds) was found to be 5.9 mmol/g; in experiment [3] (Series 2, pure compounds), 5.3 mmol/g.

For the molecule `COc1cc(C[C@@H](CO)[C@H](CO)Cc2ccc(O)c(OC)c2)ccc1O` [Secoisolariciresinol], the IC50 in experiment [1] (Series 1, pure compounds) was 4.8 nM; in experiment [2] (setting [5]), 100 nM; in experiment [2] (setting [7]), 150 nM. The “Scavenging of superoxide radicals” value was 0.0018 µg/mL in experiment [1] (Series 1, pure compounds); “more effective scavengers than both BHA and Trolox” in experiment [1] (Series 1, pure compounds, listed as secoisolariciresinol). Besides, the “Inhibition of lipid peroxidation” value turned out to be 0.037 µg/mL in experiment [2] (setting [5]) and 0.054 µg/mL in experiment [2] (setting [7]). The “Stoichiometric factor (peroxyl radicals scavenged per mole of compound)” value turned out to be 3.1 mole/mole in experiment [3] (Series 1, pure compounds) and 4.0 mole/mole in experiment [3] (Series 2, pure compounds). The “Trapping capacity (peroxyl radicals scavenged per gram)” value in experiment [3] (Series 1, pure compounds) stood at 8.5 mmol/g; in experiment [3] (Series 2, pure compounds) it was 11 mmol/g. The “Stoichiometric factor (peroxyl radicals), range over the two test series” value in experiment [3] is 3.1-4.0 mole/mole.

On to `Cc1c(C)c2c(c(C)c1O)CCC(C)(C(=O)O)O2` (centres unmarked) [Trolox, 6-hydroxy-2,5,7,8-tetramethylchroman-2-carboxylic acid, reference compound], for which the half-maximal inhibitory concentration (IC50) came to 25 nM in experiment [1] (Series 1, pure compounds); 20 nM in experiment [2] (setting [5]); 180 nM in experiment [2] (setting [7]). For the same molecule, the “Scavenging of superoxide radicals” value in experiment [1] (setting [4]) was 0.0063 µg/mL. For the same molecule, the “Inhibition of lipid peroxidation” value in experiment [2] (setting [7]) turned out to be 0.046 µg/mL; in experiment [2] (setting [6]), 0.005 µg/mL. Besides, the “Stoichiometric factor (peroxyl radicals scavenged per mole of compound)” value amounted to 2.0 mole/mole in experiment [3] (Series 1, pure compounds) and 1.7 mole/mole in experiment [3] (Series 2, pure compounds). In addition, the “Trapping capacity (peroxyl radicals scavenged per gram)” value in experiment [3] (Series 1, pure compounds) was determined as 8.0 mmol/g; in experiment [3] (Series 2, pure compounds) it was 6.8 mmol/g; in experiment [3] (knotwood extracts, fractions and reference compound) it was 8.0 mmol/g. Moreover, the “Stoichiometric factor (peroxyl radicals), range over the two test series” value in experiment [3] is 1.7-2.0 mole/mole.
